In the CheMixHub viscosity set:

Experiment: xn = mol fraction of the nth substance listed

C=Cc1ccccc1 + C1COCCO1
viscosity [mPa·s], 101.33 kPa
Details	x1 = 0.1012	x1 = 0.2139	x1 = 0.2989	x1 = 0.3996	x1 = 0.5054	x1 = 0.6016	x1 = 0.7019	x1 = 0.805	x1 = 0.9021
298.15 K	1.119	1.069	1.043	1.005	0.966	0.929	0.891	0.853	0.819
303.15 K	1.034	0.987	0.959	0.929	0.893	0.873	0.829	0.795	0.766
308.15 K	0.957	0.915	0.889	0.862	0.83	0.802	0.774	0.744	0.716

CCCCCCCl + C1COCCO1
303.15 K, 101.3 kPa
Details	viscosity [mPa·s]
x2 = 0.1087	0.6686
x2 = 0.2953	0.7084
x2 = 0.5004	0.7719
x2 = 0.6974	0.8637
x2 = 0.9013	1.004

CC12CC3CC(C1)CC(C)(C3)C2 + C1C[C@@H]2[C@H]3CC[C@H](C3)[C@@H]2C1
viscosity [mPa·s], 100 kPa
Details	x1 = 0.1021	x1 = 0.2015	x1 = 0.3018	x1 = 0.4005	x1 = 0.4981	x1 = 0.602	x1 = 0.6998	x1 = 0.8051	x1 = 0.8993
293.15 K	3.147	3.237	3.335	3.436	3.513	3.592	3.657	–	3.747
298.15 K	2.841	2.922	3.002	3.084	3.151	3.22	3.273	–	3.342
303.15 K	2.582	2.65	2.717	2.787	2.847	2.904	–	–	3.002
313.15 K	2.158	2.207	2.257	2.307	2.353	–	–	2.451	2.458
323.15 K	1.796	–	–	–	1.955	1.989	2.012	–	2.046

CCCCCCCl + C=C(C)C(=O)OC
303.15 K, 101 kPa
Details	viscosity [mPa·s]
x2 = 0.1343	0.6215
x2 = 0.1947	0.6053
x2 = 0.3625	0.5729
x2 = 0.4962	0.5511
x2 = 0.6029	0.5375
x2 = 0.8144	0.5199
x2 = 0.8988	0.5152

CC(=O)c1ccc(Cl)cc1 + C=CC#N
308.15 K, 101 kPa
Details	viscosity [mPa·s]
x1 = 0.0547	0.3753
x1 = 0.1146	0.4278
x1 = 0.1793	0.4934
x1 = 0.2555	0.5751
x1 = 0.3377	0.6821
x1 = 0.4269	0.819
x1 = 0.5441	1.026
x1 = 0.6719	1.303
x1 = 0.8213	1.697

BrC(Br)Br + C=Cc1ccccc1
viscosity [mPa·s], 101.33 kPa
Details	x2 = 0.1005	x2 = 0.2006	x2 = 0.2981	x2 = 0.3985	x2 = 0.506	x2 = 0.6032	x2 = 0.7008	x2 = 0.7712	x2 = 0.8948
298.15 K	1.834	1.697	1.562	1.426	1.284	1.163	1.054	0.9849	0.8704
303.15 K	1.714	1.586	1.462	1.332	1.198	1.084	0.9817	0.9179	0.8129
308.15 K	1.603	1.481	1.361	1.24	1.117	1.01	0.9176	0.8595	0.762
